pIC50: −log10 of the molar value.
What was measured:
[1] = In vitro microsomal stability, mouse; format: in vitro ADME; conditions: mouse liver microsomes, 5 μM, 60 min
plasma TAG level = test: Oral lipid tolerance test (OLTT), dog; format: in vivo, Beagle dogs; conditions: dogs, 17a 1 mg/kg po, n = 2
Method: Beagle dogs (9 months old, n = 2/group) were obtained from Woojung Bio Inc. (Republic of Korea) were fasted for 16 h and received heavy cream (2.7 mL/kg), glucose (1 g/kg), water (5.3 mL/kg), and acetaminophen (20 mg/kg p.o.) 1 h after compound administration. Blood samples were collected at –0.5, 0, 1, 2, and 4 h.
To determine in vivo efficacy, we evaluated the activity of 17a against serum TAG level induced by the oral administration of corn oil (oral lipid tolerance test, OLTT; Figures 3 and 4), since intestinal targeted DGAT-1 inhibition results in a reduced serum TAG level. 17a was orally administered to ICR mice at 3 mg/kg or to dogs at 1 mg/kg before administration of corn oil.
Figure 4. Effect of 17a in a canine oral lipid tolerance test (n = 2, *p < .05; ***p < .001). The dog was treated with 17a (po. 1 mg/kg) or 2 (po. 1 mg/kg) before oral administration of corn oil. Vehicle for 2: 0.5% methylcellulose/0.5% Tween80 in distilled water, vehicle for 17a: 0.5% Tween80 in distilled water.

[2] = In vitro microsomal stability, rat; format: in vitro ADME; conditions: rat liver microsomes, 5 μM, 60 min
hACAT2 = molecular target: T1, hACAT2 (Homo sapiens, UniProt O75908); test: Enzymatic assay hACAT2; format: biochemical
T1 sequence (O75908 1-522): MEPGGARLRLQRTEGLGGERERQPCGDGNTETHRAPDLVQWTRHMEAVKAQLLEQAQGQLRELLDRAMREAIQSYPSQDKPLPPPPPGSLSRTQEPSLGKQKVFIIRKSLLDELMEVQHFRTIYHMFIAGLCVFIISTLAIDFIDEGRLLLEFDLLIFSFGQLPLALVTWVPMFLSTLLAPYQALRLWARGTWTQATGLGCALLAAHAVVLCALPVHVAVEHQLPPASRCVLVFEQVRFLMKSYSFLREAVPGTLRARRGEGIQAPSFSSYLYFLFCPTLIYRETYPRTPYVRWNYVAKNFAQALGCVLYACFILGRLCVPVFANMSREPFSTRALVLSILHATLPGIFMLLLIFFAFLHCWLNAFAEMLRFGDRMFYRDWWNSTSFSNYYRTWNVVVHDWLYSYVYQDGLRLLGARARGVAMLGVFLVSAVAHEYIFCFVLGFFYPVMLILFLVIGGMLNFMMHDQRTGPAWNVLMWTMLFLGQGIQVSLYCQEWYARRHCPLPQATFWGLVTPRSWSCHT
Description: ACATs have sequence homology to DGAT-1 and play essential roles in cholesterol homeostasis. 17b was not explored in the enzymatic assays due to its poor pharmacokinetic profile.

Question: With `O=C([O-])C[C@H]1CC[C@@H](c2csc3c(-c4ccc(NC(=O)Nc5cccc(Cl)c5)cc4)ncnc32)CC1.[Na+]` [Compound 17a, Sodium cis-2–(4–(4-(4-(3–(3-chlorophenyl)ureido)phenyl)thieno[3,2-d]pyrimidin-7-yl)cyclohexyl)acetate] as the molecule, how does the “Microsomal stability, remaining percent” value [1] read?
Answer: 82%

Question: What about the “Reduction of TAG in OLTT” value (plasma TAG level) of the same molecule?
Answer: significant reduction of TAG

Question: And the “Microsomal stability, remaining percent” value [2]?
Answer: 87%

Question: And the pIC50 (hACAT2)?
Answer: < 5.00

Source: article PMC6882492, “Synthesis and biological evaluation of novel thienopyrimidine derivatives as diacylglycerol acyltransferase 1 (DGAT-1) inhibitors” (Journal of Enzyme Inhibition and Medicinal Chemistry, 2019)
